The supplement of paper PMC10307832

What was measured:
Test in all cases: relative viability (nuclei count vs DMSO), 5 days (fraction); higher = more cells survive
AZD5582 + Tozasertib = compound: C[C@@H](C(=O)N[C@@H](C1CCCCC1)C(=O)N2CCC[C@H]2C(=O)N[C@@H]3[C@@H](CC4=CC=CC=C34)OCC#CC#CCO[C@@H]5CC6=CC=CC=C6[C@@H]5NC(=O)[C@@H]7CCCN7C(=O)[C@H](C8CCCCC8)NC(=O)[C@H](C)NC)NC [AZD5582] + Cc1cc(Nc2cc(N3CCN(C)CC3)nc(Sc3ccc(NC(=O)C4CC4)cc3)n2)n[nH]1 [Tozasertib] (partner 0.1 µM)
Summary of the method: (§1)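 Dosing by pin tool came one day after lung cancer cell lines were seeded in 1536-well plates, using either one drug or a fixed anchor-drug dose plus five library-drug doses (not always all listed) in √10 steps. After 5 days, nuclei were counted on 4× images. Relative viability is treated-well nuclei count divided by vehicle-well nuclei count, and values are medians of duplicate plates.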

AZD5582 + AZD7762 = compound: C[C@@H](C(=O)N[C@@H](C1CCCCC1)C(=O)N2CCC[C@H]2C(=O)N[C@@H]3[C@@H](CC4=CC=CC=C34)OCC#CC#CCO[C@@H]5CC6=CC=CC=C6[C@@H]5NC(=O)[C@@H]7CCCN7C(=O)[C@H](C8CCCCC8)NC(=O)[C@H](C)NC)NC [AZD5582] + NC(=O)Nc1cc(-c2cccc(F)c2)sc1C(=O)N[C@H]1CCCNC1 [AZD7762] (partner 0.2 µM)
Summary of the method: as §1

AZD5582 + Pemetrexed = compound: C[C@@H](C(=O)N[C@@H](C1CCCCC1)C(=O)N2CCC[C@H]2C(=O)N[C@@H]3[C@@H](CC4=CC=CC=C34)OCC#CC#CCO[C@@H]5CC6=CC=CC=C6[C@@H]5NC(=O)[C@@H]7CCCN7C(=O)[C@H](C8CCCCC8)NC(=O)[C@H](C)NC)NC [AZD5582] + Nc1nc2[nH]cc(CCc3ccc(C(=O)N[C@@H](CCC(=O)O)C(=O)O)cc3)c2c(=O)[nH]1 [Pemetrexed] (partner 0.2 µM)
Summary of the method: as §1

[1] = compound: Cn1nnc2c(C(N)=O)ncn2c1=O [Temozolomide] + N=C(N)NC(=N)NCCc1ccccc1 [Phenformin] (partner 250 µM)
Summary of the method: as §1

Row | Cell Line | relative viability (AZD5582 + Tozasertib; first compound 0.001581 µM) | relative viability (AZD5582 + Tozasertib; first compound 0.005 µM) | relative viability (AZD5582 + Tozasertib; first compound 0.01581 µM) | relative viability (AZD5582 + Tozasertib; first compound 0.05 µM) | relative viability (AZD5582 + AZD7762; first compound 0.001581 µM) | relative viability (AZD5582 + AZD7762; first compound 0.005 µM) | relative viability (AZD5582 + AZD7762; first compound 0.01581 µM) | relative viability (AZD5582 + AZD7762; first compound 0.05 µM) | relative viability (AZD5582 + Pemetrexed; first compound 0.001581 µM) | relative viability (AZD5582 + Pemetrexed; first compound 0.005 µM) | relative viability (AZD5582 + Pemetrexed; first compound 0.01581 µM) | relative viability (AZD5582 + Pemetrexed; first compound 0.05 µM) | relative viability ([1]; first compound 0.2 µM) | relative viability ([1]; first compound 0.6325 µM) | relative viability ([1]; first compound 2 µM) | relative viability ([1]; first compound 6.325 µM) | relative viability ([1]; first compound 20 µM)
1 | LCLC-103H | 0.377 | 0.409 | 0.455 | 0.315 | 0.745 | 0.725 | 0.613 | 0.41 | 0.386 | 0.426 | 0.443 | 0.352 | 0.36 | 0.365 | 0.359 | 0.31 | 0.322
2 | LK-2 | 0.161 | 0.174 | 0.149 | 0.182 | 0.249 | 0.537 | – | 0.338 | 0.199 | 0.25 | – | 0.256 | 0.502 | 0.568 | 0.455 | 0.179 | 0.194
3 | LOU-NH91 | 0.594 | 0.679 | 0.679 | 0.613 | 0.715 | 0.833 | 0.704 | 0.742 | 0.341 | 0.367 | 0.367 | 0.408 | 0.612 | 0.74 | 0.711 | 0.788 | 0.476
4 | LU99A | 0.252 | 0.349 | 0.289 | 0.279 | 0.317 | 0.349 | 0.313 | 0.337 | 0.169 | 0.186 | 0.168 | 0.185 | 0.983 | 0.8 | 0.865 | 0.68 | 0.803
